According to patent US11365199B2, “Pyrazole compounds as modulators of FSHR and uses thereof” (Merck Patent GmbH, priority 2013, dated 2022):

The molecules below were run against T1, FSHR (Homo sapiens, UniProt P23945) (assay: EC50 of cyclic AMP production in CHO FSHR cells + EC20 FSH (Assay A)). Conditions: CHO FSHR cells + EC20 FSH, cAMP HTRF; read-out: Assay A: EC50 of cyclic AMP production.
T1 construct: expressed in transfected cells; host or cells: CHO (Cho-FSHR-LUC-1-1-43)
T1 sequence (P23945 18-695): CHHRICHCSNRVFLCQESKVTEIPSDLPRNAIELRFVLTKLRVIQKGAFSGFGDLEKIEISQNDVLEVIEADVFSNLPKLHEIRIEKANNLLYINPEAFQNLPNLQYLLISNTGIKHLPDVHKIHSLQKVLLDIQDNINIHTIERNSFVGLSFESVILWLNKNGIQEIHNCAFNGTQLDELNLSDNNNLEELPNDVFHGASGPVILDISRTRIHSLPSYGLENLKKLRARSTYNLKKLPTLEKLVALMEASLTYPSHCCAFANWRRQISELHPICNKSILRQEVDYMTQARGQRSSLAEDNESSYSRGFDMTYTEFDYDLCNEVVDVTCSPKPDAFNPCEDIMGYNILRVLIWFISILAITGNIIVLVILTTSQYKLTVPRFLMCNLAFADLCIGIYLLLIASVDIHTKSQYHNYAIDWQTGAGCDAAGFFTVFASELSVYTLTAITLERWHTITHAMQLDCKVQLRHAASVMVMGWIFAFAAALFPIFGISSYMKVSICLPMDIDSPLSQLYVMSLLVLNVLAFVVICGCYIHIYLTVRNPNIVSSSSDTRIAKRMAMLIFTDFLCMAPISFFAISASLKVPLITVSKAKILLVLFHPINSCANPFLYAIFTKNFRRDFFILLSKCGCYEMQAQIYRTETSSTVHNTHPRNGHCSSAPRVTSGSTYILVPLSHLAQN
Type: cell-based
Protocol: EC50 of Cyclic AMP Production in CHO FSHR Cells+EC20 FSH (Assay A)
2500 Cho-FSHR-LUC-1-1-43 cells were plated per well in 5 μl of phenol red free DMEM/F12+1% FBS. Cells were plated in 384 well, solid white low volume plates (Greiner 784075) by Multidrop. Cells were assayed by adding 100 μl of 2×EC20 FSH/IBMX in DMEM/F12+0.1% BSA) by Multidrop to 2 μl of test compound stamped in 384 well plates (compounds are diluted 1:50). The final FSH concentration was […], and the final IBMX concentration was 200 μM. The compound plate map was as follows: Column 1: 2 μl of DMSO; Column 2: 2 μl of DMSO; Columns 3-12 and 13-24: 2 μl of test compound, diluted 1:4 in 100% DMSO, or 2 μl of FSH, diluted 1:4 in DMEM/F12+0.1% BSA. The starting concentration for FSH was 50 nM (final concentration was 0.5 nM). Furthermore, Column 23 contained 2 μl of EC100 FSH reference (100×) (diluted in DMEM/F12+0.1% BSA) at a final concentration of 0.5 nM, and Column 24 contained 2 μl of 1 mM AS707664/2 reference compound 2. 5 μl of compound+EC20 FSH mixture were transferred to cell plates (1:2 dilution into 5 μl of cell media) The plates were incubated at 37° C. for 1 h. 10 μl of mixed HTRF (CisBio #62AM4PEC) reagents were added per well and incubated at room temperature for 1 h. The plates were read on Envision using the cAMP HTRF—low volume 384 well protocol. The readout was the calculated fluorescence ratio (665 nm/620 nm). Values given in percent (%) indicate the percental effect (response) at a certain concentration of agonist relative to the maximum response of the FSH standard.
COc1cc2c(cc1CC(C)C)-c1c(c(C(=O)NC3(C)COC3)nn1-c1ccsc1)CO2 [Compound 145, 8-Isobutyl-7-methoxy-1-thiophen-3-yl-1,4-dihydro-chromeno[4,3-c]pyrazole-3-carboxylic acid (3-methyl-oxetan-3-yl)-amide] showed an EC50 of 100 to 1000 nM.
Molecule COc1cc2c(cc1-c1cn(C)nc1C)-c1c(c(C(=O)N3CCOCC3(C)C)nn1-c1ccsc1)CO2 [Compound 123, (3,3-Dimethyl-morpholin-4-yl)-[8-(1,3-dimethyl-1H-pyrazol-4-yl)-7-methoxy-1-thiophen-3-yl-1,4-dihydro-chromeno[4,3-c]pyrazol-3-yl]-methanone] has an EC50 of under 100 nM.
In the case of COc1cc2c(cc1-c1cnc(C)n1C)-c1c(c(C(=O)N(C)C(C)(C)C)nn1-c1ccsc1)CO2 [Compound 92, 8-(2,3-Dimethyl-3H-imidazol-4-yl)-7-methoxy-1-thiophen-3-yl-1,4-dihydro-chromeno[4,3-c]pyrazole-3-carboxylic acid tert-butyl-methyl-amide], the EC50 is reported as under 100 nM.
With COc1cc2c(cc1-c1ccn(C)n1)-c1c(c(C(=O)NC(C)(CO)CO)nn1-c1ccsc1)CO2 [Compound 185, 7-Methoxy-8-(1-methyl-1H-pyrazol-3-yl)-1-thiophen-3-yl-1,4-dihydro-chromeno[4,3-c]pyrazole-3-carboxylic Acid (2-hydroxy-1-hydroxymethyl-1-methyl-ethyl)-amide] the EC50 was 100 to 1000 nM.
In the case of COc1cc2c(cc1-c1cc[nH]n1)-c1c(c(C(=O)N(C)C(C)(C)C)nn1-c1ccsc1)CO2 [Compound 65, 7-Methoxy-8-(1H-pyrazol-3-yl)-1-thiophen-3-yl-1,4-dihydro-chromeno[4,3-c]pyrazole-3-carboxylic acid tert-butyl-methyl-amide], the EC50 is reported as under 100 nM.
Work on COc1ccc2c(c1)OCc1c(C(=O)N3CCOCC3(C)C)nn(-c3ccsc3)c1-2 [Compound 128, (3,3-Dimethyl-morpholin-4-yl)-(7-methoxy-1-thiophen-3-yl-1,4-dihydro-chromeno[4,3-c]pyrazol-3-yl)-methanone] yielded an EC50 of over 5000 nM.
Work on CCn1nc(C)c(-c2cc3c(cc2OC)OCc2c(C(=O)N4CCOCC4(C)C)nn(-c4ccsc4)c2-3)c1C [Compound 204, (3,3-Dimethyl-morpholin-4-yl)-[8-(1-ethyl-3,5-dimethyl-1H-pyrazol-4-yl)-7-methoxy-1-thiophen-3-yl-1,4-dihydro-chromeno[4,3-c]pyrazol-3-yl]-methanone] yielded an EC50 of under 100 nM.
COc1cc2c(cc1C=C(C)C)-c1c(c(C(=O)N3CCCC(N)CC3)nn1-c1ccsc1)CO2 (stereo not drawn) [Compound 36, (4-Amino-azepan-1-yl)-[7-methoxy-8-(2-methyl-propenyl)-1-thiophen-3-yl-1,4-dihydro-chromeno[4,3-c]pyrazol-3-yl]-methanone] showed an EC50 of 100 to 1000 nM.
COc1cc2c(cc1C=C(C)C)-c1c(c(C(=O)N3CCC(C(=O)O)CC3)nn1-c1ccsc1)CO2 [Compound 16, 1-{7-Methoxy-8-(2-methyl-propenyl)-1-thiophen-3-yl-1,4-dihydro-chromeno[4,3-c]pyrazole-3-carbonyl]-piperidine-4-carboxylic acid] was tested, and the EC50 was over 5000 nM.
[2H]C([2H])([2H])N(CCNC(C)=O)C(=O)c1nn(-c2ccsc2)c2c1COc1cc(OC)c(C=C(C)C)cc1-2 [Compound 87] gave an EC50 of 100 to 1000 nM.
Work on COc1cc2c(cc1-c1ccn(C)n1)-c1c(c(C(=O)NC3(C)COC3)nn1-c1ccsc1)CO2 [Compound 100, 7-Methoxy-8-(1-methyl-1H-pyrazol-3-yl)-1-thiophen-3-yl-1,4-dihydro-chromeno[4,3-c]pyrazole-3-carboxylic acid (3-methyl-oxetan-3-yl)-amide] yielded an EC50 of 100 to 1000 nM.
COc1cc2c(cc1-c1ccnn1C)-c1c(c(C(=O)N(C)CC3(C)COC3)nn1-c1ccsc1)CO2 [Compound 110, 7-Methoxy-8-(2-methyl-2H-pyrazol-3-yl)-1-thiophen-3-yl-1,4-dihydro-chromeno[4,3-c]pyrazole-3-carboxylic acid methyl-(3-methyl-oxetan-3-ylmethyl)-amide] gave an EC50 of under 100 nM.
Work on COc1cc2c(cc1OC(C)C)-c1c(c(C(=O)NCCCN)nn1-c1ccsc1)CO2 [Compound 27, 8-Isopropoxy-7-methoxy-1-thiophen-3-yl-1,4-dihydro-chromeno[4,3-c]pyrazole-3-carboxylic acid (3-amino-propyl)-amide] yielded an EC50 of over 5000 nM.
COc1cc2c(cc1S(=O)(=O)CC(C)C)-c1c(c(C(=O)N3CCOCC3(C)C)nn1-c1ccsc1)CO2 [Compound 127, (3,3-Dimethyl-morpholin-4-yl)-[7-methoxy-8-(2-methyl-propane-1-sulfonyl)-1-thiophen-3-yl-1,4-dihydro-chromeno[4,3-c]pyrazol-3-yl]-methanone] was tested, and the EC50 was over 5000 nM.
COc1cc2c(cc1-c1sc(C)nc1C)-c1c(c(C(=O)N(C)C(C)(C)C)nn1-c1ccsc1)CO2 [Compound 53, 8-(2,4-Dimethyl-thiazol-5-yl)-7-methoxy-1-thiophen-3-yl-1,4-dihydro-chromeno[4,3-c]pyrazole-3-carboxylic acid tert-butyl-methyl-amide] was tested, and the EC50 was under 100 nM.
Work on C=CCn1cc(-c2cc3c(cc2OC)OCc2c(C(=O)N4CCOCC4(C)C)nn(-c4ccsc4)c2-3)cn1 [Compound 207, [8-(1-Allyl-1H-pyrazol-4-yl)-7-methoxy-1-thiophen-3-yl-1,4-dihydro-chromeno[4,3-c]pyrazol-3-yl]-(3,3-dimethyl-morpholin-4-yl)-methanone] yielded an EC50 of under 100 nM.
Work on COc1cc2c(cc1-c1cnn(CCN3CCCC3)c1)-c1c(c(C(=O)N3CCOCC3(C)C)nn1-c1ccsc1)CO2 [Compound 206, (3,3-Dimethyl-morpholin-4-yl)-{7-methoxy-8-[1-(2-pyrrolidin-1-yl-ethyl)-1H-pyrazol-4-yl]-1-thiophen-3-yl-1,4-dihydro-chromeno[4,3-c]pyrazol-3-yl}-methanone] yielded an EC50 of 100 to 1000 nM.
COc1cc2c(cc1-c1ccn(C)n1)-c1c(c(C(=O)N3CCN(C(C)=O)CC3(C)C)nn1-c1ccsc1)CO2 [Compound 216] was tested, and the EC50 was under 100 nM.
Molecule [2H]C([2H])([2H])OC1CC(N(C(=O)c2nn(-c3ccsc3)c3c2COc2cc(OC)c(-c4ccn(C)c4)cc2-3)C([2H])([2H])[2H])C1 (stereo not drawn) [Compound 142] has an EC50 of over 5000 nM.
Work on COc1cc2c(cc1C1=CCCN(C)C1)-c1c(c(C(=O)N(C)C(C)(C)C)nn1-c1ccsc1)CO2 [Compound 134, 7-Methoxy-8-(1-methyl-1,2,5,6-tetrahydro-pyridin-3-yl)-1-thiophen-3-yl-1,4-dihydro-chromeno[4,3-c]pyrazole-3-carboxylic acid tert-butyl-methyl-amide] yielded an EC50 of 100 to 1000 nM.
In the case of COc1cc2c(cc1-c1ccn(C)c1)-c1c(c(C(=O)NCC3(O)COC3)nn1-c1ccsc1)CO2 [Compound 164, 7-Methoxy-8-(1-methyl-1H-pyrrol-3-yl)-1-thiophen-3-yl-1,4-dihydro-chromeno[4,3-c]pyrazole-3-carboxylic acid (3-hydroxy-oxetan-3-ylmethyl)-amide], the EC50 is reported as 1000 to 5000 nM.
With COc1cc2c(cc1C(O)C(C)(C)O)-c1c(c(C(=O)N(C)C(C)(C)C)nn1-c1ccsc1)CO2 (stereo not drawn) [Compound 38, 8-(1,2-Dihydroxy-2-methyl-propyl)-7-methoxy-1-thiophen-3-yl-1,4-dihydro-chromeno[4,3-c]pyrazole-3-carboxylic Acid tert-butyl-methyl-amide] the EC50 was 1000 to 5000 nM.
Molecule COc1cc2c(cc1-c1ccc(F)s1)-c1c(c(C(=O)N(C)C(C)(C)C)nn1-c1ccsc1)CO2 [Compound 54, 8-(5-Fluoro-thiophen-2-yl)-7-methoxy-1-thiophen-3-yl-1,4-dihydro-chromeno[4,3-c]pyrazole-3-carboxylic acid tert-butyl-methyl-amide] has an EC50 of 100 to 1000 nM.
COc1cc2c(cc1-c1cnn(C(C)C)c1)-c1c(c(C(=O)N3CCOCC3(C)C)nn1-c1ccsc1)CO2 [Compound 191, (3,3-Dimethyl-morpholin-4-yl)-[8-(1-isopropyl-1H-pyrazol-4-yl)-7-methoxy-1-thiophen-3-yl-1,4-dihydro-chromeno[4,3-c]pyrazol-3-yl]-methanone] was tested, and the EC50 was under 100 nM.
